PubChem BioAssay AID1963839 (Molecular Pharmacology Branch, DTP, NCI, 2024)

Tested on: 817829-284-R-J1-PDC complex spheroid viability
Assay: Anticancer human tumor 817829-284-R-J1-PDC patient-derived colon adenocarcinoma cell line growth inhibition [POLQ]
Details: for IC50: curve of first compound; for viability, T/C: stronger effect = lower value
Summary of the method: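 Growth inhibition in 3D: complex spheroids (tumor PDC, HUVEC, MSC) treated with POLQ inhibitor combinations; where Cmax unknown, highest tested concentration 10 microM, except SN-38 at 1 microM.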

[1] = second compound 0.0316 µM, first compound 0.0316 µM
[2] = second compound 0.0316 µM, first compound 0.1 µM
[3] = second compound 0.0316 µM, first compound 0.316 µM
[4] = second compound 0.0316 µM, first compound 1 µM
[5] = second compound 0.0316 µM, first compound 3.16 µM
[6] = second compound 0.0316 µM, first compound 10 µM
[7] = second compound 0.1 µM, first compound 0.0316 µM
[8] = second compound 0.1 µM, first compound 0.1 µM
[9] = second compound 0.1 µM, first compound 0.316 µM
[10] = second compound 0.1 µM, first compound 1 µM
[11] = second compound 0.1 µM, first compound 3.16 µM
[12] = second compound 0.1 µM, first compound 10 µM
[13] = second compound 0.316 µM, first compound 0.0316 µM
[14] = second compound 0.316 µM, first compound 0.1 µM
[15] = second compound 0.316 µM, first compound 0.316 µM
[16] = second compound 0.316 µM, first compound 1 µM
[17] = second compound 0.316 µM, first compound 3.16 µM
[18] = second compound 0.316 µM, first compound 10 µM
[19] = second compound 1 µM, first compound 0.0316 µM
[20] = second compound 1 µM, first compound 0.1 µM
[21] = second compound 1 µM, first compound 0.316 µM
[22] = second compound 1 µM, first compound 1 µM
[23] = second compound 1 µM, first compound 3.16 µM
[24] = second compound 1 µM, first compound 10 µM
[25] = second compound 3.16 µM, first compound 0.0316 µM
[26] = second compound 3.16 µM, first compound 0.1 µM
[27] = second compound 3.16 µM, first compound 0.316 µM
[28] = second compound 3.16 µM, first compound 1 µM
[29] = second compound 3.16 µM, first compound 3.16 µM
[30] = second compound 3.16 µM, first compound 10 µM
[31] = second compound 10 µM, first compound 0.0316 µM
[32] = second compound 10 µM, first compound 0.1 µM
[33] = second compound 10 µM, first compound 0.316 µM
[34] = second compound 10 µM, first compound 1 µM
[35] = second compound 10 µM, first compound 3.16 µM
[36] = second compound 10 µM, first compound 10 µM
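Also: spheroids exposed to compounds for 7 days.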
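For viability, T/C in this document: 100% = DMSO vehicle-treated spheroids.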

Compound: COc1cccc2c1C(=O)c1c(O)c3c(c(O)c1C2=O)CC(O)(C(=O)CO)CC3OC1CC(N)C(O)C(C)O1 (centres undefined) + Nc1ccc(C#CCN(C(=O)Cc2ncc(C(F)(F)F)cc2C(F)(F)F)c2ccc(F)cc2)nn1
- IC50 (second compound 0.0316 µM): < 31.6 nM
- IC50 (second compound 0.1 µM): < 31.6 nM
- IC50 (second compound 0.316 µM): < 31.6 nM
- IC50 (second compound 1 µM): < 31.6 nM
- IC50 (second compound 3.16 µM): < 31.6 nM
- IC50 (second compound 10 µM): < 31.6 nM
- viability, T/C [1]: 21.8%
- viability, T/C [2]: 21.2%
- viability, T/C [3]: 5.37%
- viability, T/C [4]: 0.34%
- viability, T/C [5]: 0.13%
- viability, T/C [6]: 0.41%
- viability, T/C [7]: 18.1%
- viability, T/C [8]: 21.5%
- viability, T/C [9]: 6.2%
- viability, T/C [10]: 0.54%
- viability, T/C [11]: 0.2%
- viability, T/C [12]: 0.48%
- viability, T/C [13]: 21.1%
- viability, T/C [14]: 17.4%
- viability, T/C [15]: 6.38%
- viability, T/C [16]: 0.38%
- viability, T/C [17]: 0.13%
- viability, T/C [18]: 0.65%
- viability, T/C [19]: 21.6%
- viability, T/C [20]: 22.7%
- viability, T/C [21]: 5.1%
- viability, T/C [22]: 0.6%
- viability, T/C [23]: 0.16%
- viability, T/C [24]: 0.62%
- viability, T/C [25]: 17.3%
- viability, T/C [26]: 15.6%
- viability, T/C [27]: 5.54%
- viability, T/C [28]: 0.25%
- viability, T/C [29]: 0.19%
- viability, T/C [30]: 0.51%
- viability, T/C [31]: 18.4%
- viability, T/C [32]: 21.1%
- viability, T/C [33]: 4.32%
- viability, T/C [34]: 0.29%
- viability, T/C [35]: 0.26%
- viability, T/C [36]: 0.52%

Compound: O=c1[nH]cc(F)c(=O)[nH]1 + Nc1ccc(C#CCN(C(=O)Cc2ncc(C(F)(F)F)cc2C(F)(F)F)c2ccc(F)cc2)nn1
- IC50 (second compound 0.0316 µM): 1250 nM
- IC50 (second compound 0.1 µM): 1770 nM
- IC50 (second compound 0.316 µM): 1710 nM
- IC50 (second compound 1 µM): 1600 nM
- IC50 (second compound 3.16 µM): 1370 nM
- IC50 (second compound 10 µM): 1300 nM
- viability, T/C [1]: 99.6%
- viability, T/C [2]: 110%
- viability, T/C [3]: 95.6%
- viability, T/C [4]: 54.1%
- viability, T/C [5]: 34%
- viability, T/C [6]: 28.1%
- viability, T/C [7]: 96.4%
- viability, T/C [8]: 102%
- viability, T/C [9]: 84.4%
- viability, T/C [10]: 64.4%
- viability, T/C [11]: 35.8%
- viability, T/C [12]: 27%
- viability, T/C [13]: 100%
- viability, T/C [14]: 98.8%
- viability, T/C [15]: 93.3%
- viability, T/C [16]: 63.9%
- viability, T/C [17]: 34%
- viability, T/C [18]: 23.7%
- viability, T/C [19]: 108%
- viability, T/C [20]: 89.3%
- viability, T/C [21]: 93.5%
- viability, T/C [22]: 60.5%
- viability, T/C [23]: 33.7%
- viability, T/C [24]: 26.1%
- viability, T/C [25]: 86.2%
- viability, T/C [26]: 108%
- viability, T/C [27]: 77.2%
- viability, T/C [28]: 55.8%
- viability, T/C [29]: 38.1%
- viability, T/C [30]: 27.4%
- viability, T/C [31]: 92.1%
- viability, T/C [32]: 92.8%
- viability, T/C [33]: 85.5%
- viability, T/C [34]: 54.8%
- viability, T/C [35]: 33%
- viability, T/C [36]: 26.7%
